# Results taken from patent US20080287375A1, “Selective Glycosidase Inhibitors, Methods of Making Inhibitors, and Uses Thereof” (SIMON FRASER UNIVERSITY, priority 2005, published 2008).
# “Also recorded” adds a separate entry of the source. Read-outs that look alike come from different tables or passages of the source. Marks after values point to notes of the source that are not given here.
# Legend:
# [1] = system: human β-hexosaminidase; assay: Michaelis-Menten kinetics of β-hexosaminidase catalyzed hydrolysis of 4-methylumbelliferyl GlcNAc substrate analogues; assay type: biochemical; conditions: 37° C., pH 4.25
# Description: These compounds were first tested with the lysosomal human β-hexosamindase since this enzyme is known to proceed via a mechanism involving anchimeric assistance (FIG. 2A). Although Michaelian saturation kinetics were not observed for all substrates (Table 1), Vmax[E]o/KM, which is proportional to the second order rate constant governing the enzyme catalyzed reaction, could be determined from the initial slope of the Michaelis-Menten plot (FIG. 2A Inset). […] As expected, decreasing the basicity of the carbonyl oxygen has a deleterious effect on catalysis.
# [2] = molecular target: T1, O-GlcNAcase (Homo sapiens, UniProt O60502); assay: Michaelis-Menten kinetics of O-GlcNAcase catalyzed hydrolysis of 4-methylumbelliferyl GlcNAc substrate analogues; assay type: biochemical; conditions: 37° C., pH 6.5
# T1 sequence (O60502 1-916): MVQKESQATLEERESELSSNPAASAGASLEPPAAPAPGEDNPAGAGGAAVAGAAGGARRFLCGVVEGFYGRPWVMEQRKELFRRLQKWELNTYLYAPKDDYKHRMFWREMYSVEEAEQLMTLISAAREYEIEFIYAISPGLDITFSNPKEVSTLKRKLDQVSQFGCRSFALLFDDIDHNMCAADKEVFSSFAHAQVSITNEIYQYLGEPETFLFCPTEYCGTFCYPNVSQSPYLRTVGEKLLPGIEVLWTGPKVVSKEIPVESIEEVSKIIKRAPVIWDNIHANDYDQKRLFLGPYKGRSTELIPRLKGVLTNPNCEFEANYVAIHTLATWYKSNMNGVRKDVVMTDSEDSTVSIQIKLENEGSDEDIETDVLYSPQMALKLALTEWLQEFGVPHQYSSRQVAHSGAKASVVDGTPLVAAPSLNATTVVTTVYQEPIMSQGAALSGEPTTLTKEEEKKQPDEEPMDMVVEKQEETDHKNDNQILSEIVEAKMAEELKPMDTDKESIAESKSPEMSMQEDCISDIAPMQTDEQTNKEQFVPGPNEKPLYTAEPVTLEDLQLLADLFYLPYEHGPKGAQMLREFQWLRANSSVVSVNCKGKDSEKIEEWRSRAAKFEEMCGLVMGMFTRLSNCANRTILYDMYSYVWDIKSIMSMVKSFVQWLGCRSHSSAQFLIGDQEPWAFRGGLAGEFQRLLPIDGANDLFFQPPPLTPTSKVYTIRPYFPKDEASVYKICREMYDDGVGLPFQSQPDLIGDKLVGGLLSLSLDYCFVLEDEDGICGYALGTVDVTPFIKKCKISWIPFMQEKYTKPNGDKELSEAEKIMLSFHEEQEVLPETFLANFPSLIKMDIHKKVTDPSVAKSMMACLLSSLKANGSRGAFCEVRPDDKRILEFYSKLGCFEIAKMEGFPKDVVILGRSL
# Description: For O-GlcNAcase the value of Vmax[E]0/KM is also dependant on the extent of fluorine substitution but the slope is more shallow (ρ=−0.42±0.08, FIG. 2C).
# [3] = molecular target: T1, O-GlcNAcase; conditions: for Selectivity Ratio (β-Hex KI/O-GlcNAcase KI): Table 2
# [4] = molecular target: human placental β-hexosaminidase; assay: Inhibition of β-hexosaminidase, substrate MU-GlcNAc (5), Dixon plots
# [5] = molecular target: T1, O-GlcNAcase; assay: biochemical
# [6] = molecular target: T1, O-GlcNAcase; assay: Time dependent inactivation of O-GlcNAcase by STZ
# [7] = system: β-hexosaminidase; assay: Time dependent inactivation of β-hexosaminidase by STZ; conditions: 10 mM STZ, pH 4.25, over six hours
# [8] = molecular target: O-GlcNAcase; conditions: read-out: IC50, O-GlcNAcase, previous determinations; cited from earlier work
# [9] = Decomposition of STZ in D2O followed by NMR; conditions: room temperature
# [10] = system: O-GlcNAc-modified proteins in COS-7 cells; assay: Western blot of O-GlcNAc-modified proteins in COS-7 cells cultured with inhibitors; assay type: cell-based; conditions: 50 μM inhibitor, 40 hours, Western blot
# Description: (§1) COS-7 cells were cultured in DMEM medium (Invitrogen) supplemented with 5-10% FBS (Invitrogen). Aliquots of inhibitors (50 μL of a stock in 95% ethanol) were delivered onto tissue culture plates and the ethanol was evaporated. The cells were incubated at 37° C. for 40 hours at which time they reached approximately 80% confluence. […] COS-7 cells were cultured to 25% confluence in 5% FBS and an aliquot (100 μL) of inhibitor dissolved in media and filter sterilized was added to each plate to yield a final concentration of 50 μM of inhibitor. COS-7 cells (2×10 cm plates) were harvested at the appropriate times by scraping and were pooled by centrifugation (200×g, 10 min). Cells were washed once with PBS, pH 7.0 (10 mL) and pelleted (200×g, 10 min). The cells could be frozen at −80° C. at this point. Control cultures without inhibitors were treated in the same manner.
# A culture of control cells was treated in the same manner as follows but the cultures contained no inhibitor. Cells were harvested as described above. Frozen cells were thawed at 4° C., and cold lysis buffer (1 mL of 50 mM Tris, pH 8.0 containing 150 mM NaCl, 1 mM EDTA, 1 mM PMSF, 1% NP-40, 0.5% sodium deoxycholate, and 1 mM of inhibitor 90) was added. After 10 minutes at 4° C. the solution was centrifuged at 14,000 rpm in an Eppendorf 5415C microcentrifuge and the supernatant was collected. SDS/PAGE loading buffer was added to an aliquot (15 μL) of each sample, and after heating at 96° C. aliquots were loaded onto 10% or 12% Tris-HCl polyacrylamide gels. After electrophoresis, the samples were electroblotted to nitrocellulose membrane (0.45 μm, Bio-Rad). Transfer was verified by visual inspection of the transfer of prestained markers (Dual Colour Precision Plus Protein Standard—Biorad). The membrane was blocked by using 5% BSA (fraction V, Sigma) in PBS (blocking buffer A for samples probed with mouse anti-O-GlcNAc monoclonal IgM antibody (MAb CTD 110.6—Covance)) or 5% low-fat dry powdered milk (blocking buffer B for samples probed with anti-β-actin), pH 7.4, containing 0.1% Tween 20 for 1 h at room temperature or overnight at 4° C. The blocking solution was decanted, and a solution of blocking buffer A containing MAb CTD 110.6 (1:2500 of the stock) or blocking buffer B containing mouse monoclonal anti-β-actin IgG (Clone AC-40—Sigma) was added (1:1000 dilution) as appropriate. The membrane was incubated at room temperature for 1 h or overnight at 4° C. after which the blocking buffer was decanted and the membrane was rinsed with PBS, pH 7.4, containing 0.1% Tween 20 (wash buffer). Membranes were then rinsed for 2×5 min and 3×15 min with wash buffer. For immunological detection of O-GlcNAc, the membrane was incubated in blocking buffer A for 1 hour at RT and, after washing, the membrane was incubated with a secondary goat anti-mouse-IgM-HRP-conjugate (1:2500, Santa Cruz Biotech) for one hour at RT or 4° C. overnight in blocking solution. For detection of β-actin levels, the membrane was incubated with a secondary goat anti-mouse-IgG-HRP conjugate (1:100000, Sigma) for one hour at RT or 4° C. overnight in blocking solution B. Membranes were washed and detection of membrane bound goat anti-mouse-IgG-HRP conjugate was accomplished by chemiluminescent detection using the SuperSignal West Pico Chemiluminescent Detection Kit (Pierce) and film (Kodak Biomax MR).
# [11] = system: COS-7 cells; assay: Proliferation rate and morphology of COS-7 cells incubated with inhibitors; assay type: cell-based; conditions: 50 μM inhibitor
# Description: as §1
# [12] = read-out: β-Hexosaminidase KI, Table 2, substrate 5 at 0.64 mM, pH 4.25, Dixon plots
# [13] = read-out: KI, β-hexosaminidase, human lysosomal β-hexosaminidase
smiles,measurement,setting,value
"CC(=O)N[C@H]1[C@H](Oc2ccc3c(C)cc(=O)oc3c2)O[C@H](CO)[C@@H](O)[C@@H]1O [MuGlcNAc, reference compound]",Km,[1],880 ± 50 µM
same,Vmax [E]o,[1],8.3 ± 0.2 µmol/min/mg
same,Km,[2],430 ± 40 µM
same,Vmax [E]o,[2],0.74 ± 0.02 µmol/min/mg
"CCCCC1=N[C@@H]2[C@@H](O)[C@H](O)[C@@H](CO)O[C@@H]2S1 [Compound 9d, 1,2-dideoxy-2′-butyl-α-D-glucopyranoso-[2,1-d]-Δ2′-thiazoline]",selectivity ratio for O-GlcNAcase over β-hexosaminidase,[3],3100 fold
same,Selectivity Ratio (β-Hex KI/O-GlcNAcase KI),[3],3100
same,Ki,[4]; [12],4600 µM
same,Ki,[5],1.5 µM
"Cc1cc(=O)oc2cc(O[C@@H]3O[C@H](CO)[C@@H](O)[C@H](O)[C@H]3NC(=O)CF)ccc12 [MuGlcNAc-F1, 4-Methylumbelliferyl 2-deoxy-2-fluoroacetamido-β-D-glucopyranoside]",Km,[1],3800 ± 400 µM
same,Vmax [E]o,[1],3.3 ± 0.2^b μmol min^−1 mg^−1
same,Km,[2],490 ± 60 µM
same,Vmax [E]o,[2],0.60 ± 0.03 µmol/min/mg
"CN(N=O)C(=O)N[C@H]1C(O)O[C@H](CO)[C@@H](O)[C@@H]1O (mixture of isomers) [STZ, streptozotocin]","inhibition of O-GlcNAcase, in words",[3],poor inhibitor
same,"selectivity for O-GlcNAcase over β-hexosaminidase, in words",[3],moderate selectivity
same,selectivity ratio for O-GlcNAcase over β-hexosaminidase,[3],31 fold
same,Selectivity Ratio (β-Hex KI/O-GlcNAcase KI),[3],31
same,Ki,"[3]; read-out: KI, O-GlcNAcase, pH 6.5",1500 µM
same,Ki,[4]; [13],47000 µM
same,Ki,[4]; [12],47000 µM
same,time dependent inactivation of O-GlcNAcase,"[6]; 10 mM STZ, pH 6.5, over six hours",did not act as a time dependent inactivator; also recorded: does not show a time dependent inactivation
same,"expected ratio of reaction velocities VControl/VSTZ, O-GlcNAcase","[6]; calculated assuming competitive inhibition, KI=1.5 mM, 1.2 mM STZ in assay",1.17
same,time dependent inactivation of β-hexosaminidase,[7],did not act as a time dependent inactivator; also recorded: does not show a time dependent inactivation
same,IC50,[8],1000 to 2500 µM
same,half-life in aqueous solution (D2O),[9],greater than 6 hours
"CC(C)C1=N[C@@H]2[C@@H](O)[C@H](O)[C@@H](CO)O[C@@H]2S1 [Compound 9f, 1,2-dideoxy-2′-isopropyl-α-D-glucopyranoso-[2,1-d]-Δ2′-thiazoline]","inhibition of O-GlcNAcase, in words",[3],good inhibitors; also recorded: potent inhibitors
same,"selectivity for O-GlcNAcase over β-hexosaminidase, in words",[3],remarkable selectivity
same,selectivity ratio for O-GlcNAcase over β-hexosaminidase,[3],700 fold
same,Selectivity Ratio (β-Hex KI/O-GlcNAcase KI),[3],700
same,Ki,[4]; [12],720 µM
same,Ki,[5],1.6 µM
"CC1=N[C@@H]2[C@@H](O)[C@H](O)[C@@H](CO)O[C@@H]2S1 [Compound 9a, 2′-methyl-α-D-glucopyrano-[2,1-d]-Δ2′-thiazoline, reference compound]","binding more tightly than GlcNAc, β-hexosaminidase",[4],17000 fold
same,cellular levels of O-GlcNAc-modified proteins compared to control,[10],Marked increases; also recorded: increase in cellular levels of O-GlcNAc-modified proteins
same,proliferation rate or morphology compared to control cells,[11],no abnormalities in proliferation rate or morphology
"CC(C)CC1=NC2C(OC(CO)C(O)C2O)S1 [Compound 9g, 1,2-dideoxy-2′-isobutyl-α-D-glucopyranoso-[2,1-d]-42′-triazoline D]","inhibition of O-GlcNAcase, in words",[3],good inhibitors
same,cellular levels of O-GlcNAc-modified proteins compared to control,[10],Marked increases; also recorded: increase in cellular levels of O-GlcNAc-modified proteins
same,proliferation rate or morphology compared to control cells,[11],no abnormalities in proliferation rate or morphology
"CC(=O)N[C@H]1C(O)O[C@H](CO)[C@@H](O)[C@@H]1O (stereo partly shown) [GlcNAc, N-acetylglucosamine, reference compound]",Selectivity Ratio (β-Hex KI/O-GlcNAcase KI),[3],0.8
same,Ki,[4]; [13],1200 µM
same,Ki,[4]; [12],1200 µM
same,Ki,[5],1500 µM
